From PMC3109749 (ACS medicinal chemistry letters, 2011)
Values belong to the compound of their own block, whether it stands above or below them.

Assays:
[1] = tested on: serine hydrolase superfamily (FAAH and other FP-reactive serine hydrolases); type: biochemical, human; settings: for off targets in human membrane proteome (ABPP): brain membrane proteome, 10 and 100 μM
[2] = target: T1, serine hydrolase superfamily (FAAH and other FP-reactive serine hydrolases) (Homo sapiens, UniProt O00519); type: biochemical; settings: brain membrane proteome; at both 10 and 100 μM
T1 sequence (O00519 1-579): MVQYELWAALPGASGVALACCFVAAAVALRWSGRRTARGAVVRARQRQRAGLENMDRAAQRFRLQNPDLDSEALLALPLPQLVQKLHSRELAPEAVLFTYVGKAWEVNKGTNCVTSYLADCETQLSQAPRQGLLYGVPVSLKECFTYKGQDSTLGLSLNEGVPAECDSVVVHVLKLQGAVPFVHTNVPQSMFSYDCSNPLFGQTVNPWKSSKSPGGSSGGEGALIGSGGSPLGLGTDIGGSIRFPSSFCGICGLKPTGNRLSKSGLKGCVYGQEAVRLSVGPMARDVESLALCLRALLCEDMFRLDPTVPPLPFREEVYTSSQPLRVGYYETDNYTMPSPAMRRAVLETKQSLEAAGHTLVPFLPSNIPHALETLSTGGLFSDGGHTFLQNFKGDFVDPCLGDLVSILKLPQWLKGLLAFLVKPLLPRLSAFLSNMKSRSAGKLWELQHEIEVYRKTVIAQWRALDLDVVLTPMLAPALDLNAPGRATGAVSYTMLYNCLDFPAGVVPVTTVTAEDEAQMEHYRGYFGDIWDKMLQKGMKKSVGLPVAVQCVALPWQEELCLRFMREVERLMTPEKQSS

[3] = tested on: serine hydrolase superfamily (FAAH and other FP-reactive serine hydrolases); type: biochemical, mouse; settings: for off targets in mouse membrane proteome (ABPP): brain membrane proteome, 10 and 100 μM
[4] = target: T2, serine hydrolase superfamily (FAAH and other FP-reactive serine hydrolases) (Mus musculus, UniProt O08914); type: biochemical; settings: brain membrane proteome; at both 10 and 100 μM
T2 sequence (O08914 1-579): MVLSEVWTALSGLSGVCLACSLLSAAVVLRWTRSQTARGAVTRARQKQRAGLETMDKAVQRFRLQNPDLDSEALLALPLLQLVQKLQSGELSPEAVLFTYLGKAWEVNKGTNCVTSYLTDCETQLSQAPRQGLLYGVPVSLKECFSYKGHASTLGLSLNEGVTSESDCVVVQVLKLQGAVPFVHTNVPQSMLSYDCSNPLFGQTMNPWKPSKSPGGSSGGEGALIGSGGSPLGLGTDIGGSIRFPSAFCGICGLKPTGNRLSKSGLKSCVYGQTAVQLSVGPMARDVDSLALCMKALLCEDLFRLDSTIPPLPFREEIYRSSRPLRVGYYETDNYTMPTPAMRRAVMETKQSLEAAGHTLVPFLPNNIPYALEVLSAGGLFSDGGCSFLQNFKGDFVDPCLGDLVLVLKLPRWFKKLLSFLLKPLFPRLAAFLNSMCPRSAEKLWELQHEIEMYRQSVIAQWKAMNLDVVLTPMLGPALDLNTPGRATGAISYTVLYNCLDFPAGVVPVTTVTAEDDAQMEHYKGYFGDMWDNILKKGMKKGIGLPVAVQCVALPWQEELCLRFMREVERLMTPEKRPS

[5] = tested on: rat model of inflammatory pain (CFA); settings: not shown in this paper's figure; cited from earlier work
rat FAAH (rFAAH) = target: T3, rat FAAH (rFAAH) (Rattus norvegicus, UniProt P97612); test: enzyme-coupled rat FAAH assay, kinact/Ki; type: biochemical
T3 sequence (P97612 1-579): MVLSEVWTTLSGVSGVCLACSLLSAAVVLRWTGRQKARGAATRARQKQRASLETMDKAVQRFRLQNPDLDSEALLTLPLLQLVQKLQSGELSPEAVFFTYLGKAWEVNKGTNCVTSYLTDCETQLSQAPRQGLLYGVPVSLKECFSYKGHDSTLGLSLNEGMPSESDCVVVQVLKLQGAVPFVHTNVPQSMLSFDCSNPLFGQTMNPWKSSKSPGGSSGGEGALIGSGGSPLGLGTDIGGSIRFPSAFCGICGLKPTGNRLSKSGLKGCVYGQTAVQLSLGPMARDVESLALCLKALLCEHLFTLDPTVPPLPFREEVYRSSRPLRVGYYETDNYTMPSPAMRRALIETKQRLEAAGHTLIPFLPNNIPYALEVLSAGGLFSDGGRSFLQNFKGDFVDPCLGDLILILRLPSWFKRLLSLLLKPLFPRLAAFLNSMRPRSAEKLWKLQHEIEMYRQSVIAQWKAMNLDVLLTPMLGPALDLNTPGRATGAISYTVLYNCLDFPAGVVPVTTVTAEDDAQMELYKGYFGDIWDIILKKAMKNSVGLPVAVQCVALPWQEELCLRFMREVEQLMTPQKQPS

human FAAH (hFAAH) = target: T4, human FAAH (hFAAH) (Homo sapiens, UniProt O00519); test: enzyme-coupled human FAAH assay, kinact/Ki; type: biochemical
T4 sequence (O00519 32-579 limits assumed): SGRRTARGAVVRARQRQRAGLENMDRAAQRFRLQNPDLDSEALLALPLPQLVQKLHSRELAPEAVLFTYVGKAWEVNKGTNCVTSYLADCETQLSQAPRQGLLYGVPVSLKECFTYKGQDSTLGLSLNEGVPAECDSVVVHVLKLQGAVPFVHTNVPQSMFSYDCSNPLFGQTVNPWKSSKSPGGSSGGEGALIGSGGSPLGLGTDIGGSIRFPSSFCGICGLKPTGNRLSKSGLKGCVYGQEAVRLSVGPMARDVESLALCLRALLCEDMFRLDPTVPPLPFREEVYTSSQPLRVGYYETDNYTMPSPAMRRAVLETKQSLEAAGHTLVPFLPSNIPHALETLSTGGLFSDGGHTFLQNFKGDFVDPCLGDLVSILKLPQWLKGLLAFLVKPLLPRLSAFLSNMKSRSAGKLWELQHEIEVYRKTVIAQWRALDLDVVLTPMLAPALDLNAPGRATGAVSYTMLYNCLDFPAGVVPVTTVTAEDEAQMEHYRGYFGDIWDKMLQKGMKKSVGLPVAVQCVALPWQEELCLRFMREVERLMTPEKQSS

[6] = human liver microsomal stability and binding; type: in vitro ADME; settings: predicted from in vitro experiments
FAAH = target: T5, FAAH (Rattus norvegicus, UniProt P97612); test: in vivo FAAH activity accompanying efficacy; settings: at efficacious doses starting at 0.1 mg/kg; with elevations in anandamide and other fatty acid amides in brain and plasma
T5 sequence (P97612 1-579): T3 sequence (P97612 1-579)

[7] = soluble proteome of liver, up to 100 μM

SMILES: NC(=O)c1cccc(-c2cccc(OC(=O)NC3CCCCC3)c2)c1 [Compound 2]
off targets in human membrane proteome (ABPP) [1]: no off targets
off targets among serine hydrolases in human soluble liver proteome (ABPP) [1, 7]: multiple off targets
inhibition of FAAH in human membrane proteome (ABPP) [2]: completely inhibited FAAH
off targets in mouse membrane proteome (ABPP) [3]: no off targets
off targets among serine hydrolases in mouse soluble liver proteome (ABPP) [3, 7]: multiple off targets
inhibition of FAAH in mouse membrane proteome (ABPP) [4]: completely inhibited FAAH

SMILES: O=C(Nc1cccnc1)N1CCC(Cc2cccc(Oc3ccc(C(F)(F)F)cn3)c2)CC1 [Compound 7]
minimum effective dose (MED), mechanical allodynia [5]: 3 mg/kg

SMILES: Cc1noc(NC(=O)N2CCC(=Cc3cccc(Oc4ccc(C(F)(F)F)cn4)c3)CC2)c1C [Compound 24]
fold more potent for rFAAH as compared to 23 (rat FAAH (rFAAH); compared to 23): 2 fold
fold less potent for hFAAH as compared to 23 (human FAAH (hFAAH)): 5 fold

SMILES: O=C(Nc1cccnn1)N1CCC(=Cc2cccc(Oc3ccccc3)c2)CC1 [Compound 27]
additional fold loss in potency on removal of the trifluoromethyl substituent (human FAAH (hFAAH); compared to 26): 10 fold

SMILES: O=C(Nc1cccnn1)N1CCC(=Cc2cccc(Oc3ccc(C(F)(F)F)nc3)c2)CC1 [Compound 28]
fold less potent for hFAAH as compared to 23 (human FAAH (hFAAH)): ≤ 2 fold

Continued, in another order:

fold more potent (higher kinact/Ki) than 7 for rFAAH (rat FAAH (rFAAH); compared to PF-3845 (7)): ~4 fold
fold more potent (higher kinact/Ki) than 7 for hFAAH (human FAAH (hFAAH); compared to PF-3845 (7)): approximately 2 fold
SMILES: O=C(Nc1cccnc1)N1CCC(=Cc2cccc(Oc3ccc(C(F)(F)F)cn3)c2)CC1 [Compound 11]

fold less potent than 11 for hFAAH (human FAAH (hFAAH); compared to 11): approximately 19 fold
SMILES: O=C(Nc1cccnc1)N1CCC/C(=C\c2cccc(Oc3ccc(C(F)(F)F)cn3)c2)C1 [Compound 16]

FAAH potency in words (human FAAH (hFAAH); relative to the parent analogue (9 vs 4, 10 vs 5, 12-17 vs 11)): activity was almost completely abolished
SMILES: O=C(Nc1cccnc1)N1CCC/C(=C/c2cccc(Oc3ccc(C(F)(F)F)cn3)c2)C1 [Compound 17]

fold higher kinact/Ki value for hFAAH as compared to 11 (human FAAH (hFAAH); compared to 11): 2 fold
SMILES: O=C(Nc1cnccn1)N1CCC(=Cc2cccc(Oc3ccc(C(F)(F)F)cn3)c2)CC1 [Compound 22]

off targets in human membrane proteome (ABPP) [1]: no off targets
inhibition of FAAH in human membrane proteome (ABPP) [2]: completely inhibited FAAH
predicted human blood clearance [6]: 0.6 mL/min/kg
off targets in mouse membrane proteome (ABPP) [3]: no off targets
inhibition of FAAH in mouse membrane proteome (ABPP) [4]: completely inhibited FAAH
SMILES: O=C(Nc1cccnn1)N1CCC(=Cc2cccc(Oc3ccc(C(F)(F)F)cn3)c2)CC1 [Compound 23]
inhibition of FAAH activity in vivo (FAAH): near complete inhibition of FAAH activity

fold less potent for hFAAH as compared to 23 (human FAAH (hFAAH)): 2 fold
SMILES: O=C(Nc1cccnn1)N1CCC(=Cc2cccc(Oc3ccc(C(F)(F)F)cc3)c2)CC1 [Compound 26]
